According to patent publication US12246011B2, “Radiation mitigator and method of use thereof” (Georgetown University, priority 2016, dated 2025):

How the values were obtained:
C57BL/6 mice = test: Barrier function study (intestinal epithelial permeability to FITC-dextran) after 14 Gy TBI; type: in vivo; details: three doses of 10 mg/kg body weight per day beginning 24 h post-IR, serum FITC 5 d post-IR
Method: Gamma radiation: 7-week-old C57BL/6 mice were exposed to total body irradiation (TBI) 14 Gy gamma ionizing radiation (IR) with air pumped into the chamber during. A Gammacell 40 ^137Cs gamma irradiator was used with a dose rate of 0.8 Gy IR per minute. Dosimetry measurements were performed using Fricke Dosimetry systems. Measured absorbance dose was: Central Dose Rate (0.790 Gy/min±2.9%); 3 o'clock position (0.804 Gy/min±3.8%); and 7 o'clock position (0.808 Gy/min±2.7%). The experiments were performed within 6 months of the dosimetry analysis. All IR treatments were begun in the morning. […] All animals received easy access to liquid gel food and water in the cage.
Barrier function study: Two hours before euthanasia (5 d post-IR), each mouse was orally administered (gavage) with 100 μL of FITC-dextran (FITC dextran 4; MW 4000) at a dose of 80 mg/100 g body weight. Serum analysis of FITC concentration was performed in triplicate using Synergy Bio TEK plate reader.
Gamma radiation: 7-week-old C57BL/6 mice were exposed to total body irradiation (TBI) 14 Gy gamma ionizing radiation (IR) with air pumped into the chamber during. A Gammacell 40 ^137Cs gamma irradiator was used with a dose rate of 0.8 Gy IR per minute. […] Measured absorbance dose was: Central Dose Rate (0.790 Gy/min±2.9%); 3 o'clock position (0.804 Gy/min±3.8%); and 7 o'clock position (0.808 Gy/min±2.7%). […]

[1] = test system: YAMC (normal colonic epithelial cell line); test: Colony forming assay (cell survival) after 4 Gy IR; type: cell-based, Murine; details: treatment 24 h post-IR at 10 μM, 100 μM and 1 mM, colonies counted at end of 96 h
Method: (§1) Gamma radiation: YAMC (normal colonic epithelial cell line) were exposed to 4 Gy gamma ionizing radiation (IR) with air pumped into the chamber during exposure. A Gammacell 40 ^137Cs gamma irradiator was used with a dose rate of 0.8 Gy IR per minute. Dosimetry measurements were performed using Fricke Dosimetry systems. Measured absorbance dose was: Central Dose Rate (0.790 Gy/min±2.9%); 3 o'clock position (0.804 Gy/min±3.8%); and 7 o'clock position (0.808 Gy/min±2.7%). The experiments were performed within 6 months of the dosimetry analysis.
Colony forming assay: Colony forming assay is universally recognized as the gold standard method for measuring the effects of radiation, chemotherapeutic drugs on cell viability, and cell survival. […] At the end of 96 h, cells were fixed and counted for number of colonies formed. The number of colonies formed represents the number of cells survived.
as §1, with “The experiments were performed within 6 months of the dosimetry analysis.” left out

[2] = test system: YAMC (normal colonic epithelial cell line); test: Clonogenic assay for self-renewal (spheroid formation) after 4 Gy IR; type: cell-based, Murine; details: treatment 24 h post-IR at 10 μM, 100 μM and 1 mM, spheroids counted at end of 192 h
Method: as §1
Clonogenic assay for self-renewal: Self-renewal is the hallmark for stem cells or stem-like cells. Clonogenic assay or clonal expansion of single cell into spheroids/organoids is the reputed method to analyze cell self-renewal. […] At the end of 192 h, spheroids were counted for quantitative assessment of the number of spheroids formed.
Gamma radiation: YAMC (normal colonic epithelial cell line) were exposed to 4 Gy gamma ionizing radiation (IR) with air pumped into the chamber during exposure. […] Measured absorbance dose was: Central Dose Rate (0.790 Gy/min±2.9%); 3 o'clock position (0.804 Gy/min±3.8%); and 7 o'clock position (0.808 Gy/min±2.7%). […]
Clonogenic assay for self-renewal: Self-renewal is the hallmark for stem cells or stem-like cells. […] At the end of 192 h, spheroids were counted for quantitative assessment of the number of spheroids formed. […]

[3] = largest among ARBs; cited from earlier work

Compound	intestinal epithelial permeability to FITC-dextran versus vehicle control (C57BL/6 mice)	YAMC cell survival (number of colonies formed) compared to vehicle treatment [1]	self-renewal ability of YAMC cells (number of spheroids formed) compared to vehicle treatment [2]	volume of distribution [3] [L]
CCCc1nc2c(C)cc(-c3nc4ccccc4n3C)cc2n1Cc1ccc(-c2ccccc2C(=O)O)cc1 [telmisartan, Telmisartan]	essentially the same	significantly increased	significantly increased	500
CC1(C)CC(O)CC(C)(C)N1[O] [tempol, 4-hydroxy-2,2,6,6-tetramethylpiperidin-1-oxyl]	essentially the same	significantly increased	significantly increased	
